Laboratory results from ChEMBL document CHEMBL1125230, “Analysis of the in vitro antitumor activity of novel purine-6-sulfenamide, -sulfinamide, and -sulfonamide nucleosides and certain related compounds using a computer-aided receptor modeling procedure” (1991).

These compounds were tested on L1210 (assay: In vitro growth inhibition of L1210 tumor cells).
Format: functional, Mus musculus
For `N=C1N=C(S)C2N=CN([C@H]3C[C@H](O)[C@@H](CO)O3)C2=N1` (stereo partly specified), the “Log 1/ID50” value was 7.3.
`N[S+]([O-])c1ncnc2c1ncn2C1O[C@H](CO)[C@@H](O)[C@H]1O` (mixture of isomers) was tested, and the “Log 1/ID50” value was 4.
For `C[C@H]1OC(n2cnc3c(SN)nc(N)nc32)[C@H](O)[C@@H]1O` (stereo partly specified), the “Log 1/ID50” value was 6.
In the case of `NSc1nc(N)nc2c1ncn2[C@H]1C[C@H](O)[C@@H](CO)O1`, the “Log 1/ID50” value is reported as 6.06.
In the case of `NC(=O)c1ncnc2c1cnn2C1O[C@H](CO)[C@@H](O)[C@H]1O` (stereo partly specified), the “Log 1/ID50” value is reported as 4.38.
`Nc1cc2c(ncn2C2O[C@H](CO)[C@@H](O)[C@H]2O)c([S+](N)[O-])n1` (mixture of isomers) was tested, and the “Log 1/ID50” value was 3.
`NS(=O)(=O)c1ncnc2c1ncn2[C@H]1C[C@H](O)[C@@H](CO)O1` was tested, and the “Log 1/ID50” value was 4.56.
With `Nc1nc([S+](N)[O-])c2ncn([C@@H]3C[C@@H](O)[C@H](CO)O3)c2n1` (mixture of isomers) the “Log 1/ID50” value was 4.45.
With `Nc1nc([S+](N)[O-])c2ncn(C3O[C@H](CO)[C@@H](O)[C@H]3O)c2n1` (mixture of isomers) the “Log 1/ID50” value was 6.
`C[C@H]1OC(n2cnc3c([S+](N)[O-])nc(N)nc32)[C@H](O)[C@@H]1O` (mixture of isomers) was tested, and the “Log 1/ID50” value was 5.55.
`C[C@H]1OC(n2cnc3c(S(N)(=O)=O)nc(N)nc32)[C@H](O)[C@@H]1O` (stereo partly specified) was tested, and the “Log 1/ID50” value was 5.42.
With `NSc1ncnc2c([C@@H]3O[C@H](CO)[C@@H](O)[C@H]3O)n[nH]c12` the “Log 1/ID50” value was 4.69.
For `NSc1ncnc2c1ncn2[C@H]1C[C@H](O)[C@@H](CO)O1`, the “Log 1/ID50” value was 6.66.
In the case of `Nc1nc([S+](N)[O-])c2ncn([C@@H]3C[C@@H](O)[C@H](CO)O3)c2n1` (stereo in doubt; 9), the “Log 1/ID50” value is reported as 5.52.
For `NSc1ncnc2c1cnn2C1O[C@H](CO)[C@@H](O)[C@H]1O` (stereo partly specified), the “Log 1/ID50” value was 4.51.
For `Nc1nc(S(N)(=O)=O)c2ncn(C3O[C@H](CO)[C@@H](O)[C@H]3O)c2n1` (stereo partly specified), the “Log 1/ID50” value was 5.7.
For `NSc1ncnc2c1ncn2C1O[C@H](CO)[C@@H](O)[C@H]1O` (stereo partly specified), the “Log 1/ID50” value was 5.22.
`NSc1nc(N)nc2c1ncn2C1O[C@H](CO)[C@@H](O)[C@H]1O` (stereo partly specified) was tested, and the “Log 1/ID50” value was 6.52.
For `NS(=O)(=O)c1ncnc2c1ncn2[C@@H]1O[C@H](CO)[C@@H](O)[C@H]1O`, the “Log 1/ID50” value was 4.92.
For `NS(=O)(=O)c1ncnc2c1ncn2[C@@H]1O[C@H](CO)[C@@H](O)[C@@H]1O`, the “Log 1/ID50” value was 4.
For `N[S+]([O-])c1ncnc2c1ncn2[C@@H]1C[C@@H](O)[C@H](CO)O1` (mixture of isomers), the “Log 1/ID50” value was 4.6.
